This is an account of results in the supplement of paper PMC6045584.

Compound in one test: COc1cccc2c1C(=O)c1c(O)c3c(c(O)c1C2=O)C[C@@](O)(C(=O)CO)C[C@@H]3O[C@H]1C[C@H](N)[C@H](O)[C@H](C)O1 [DOXORUBICIN]
Put plainly: surviving fraction relative to DMSO-only wells; higher = less growth inhibition. Particulars: exposure time: 5 days. In short, it runs like this:
(§1)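 Inhibitors were tested at 0.5, 1, 5, 10, 50, 100, 500 and 1000 nM, applied continuously for five days beginning 24 hours after log-phase tumour cells were seeded at 250–500 per well in 384-well plates. CellTiter-Glo luminescence served as the viability measure, expressed as surviving fraction against the median of DMSO-only wells. Each line, screened three times, was kept only with replicate Pearson r >0.7 and median Z' >0.3.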

Compound in the next test: Oc1ccc(/C=C/c2cc(O)cc(O)c2)cc1 [RESVERATROL]
The description is as above. Particulars: exposure time: 5 days. In outline:
as §1

± gives the standard deviation of the averaged measurements.

For the test system G292 BONE, the surviving fraction came to 1.03 ± 0.065 with DOXORUBICIN (0.5 nM); 1 ± 0.037 in the test with DOXORUBICIN (1 nM); 0.816 ± 0.052 with DOXORUBICIN (5 nM); 0.601 ± 0.059 with DOXORUBICIN (10 nM); 0.388 ± 0.031 with DOXORUBICIN (50 nM); 0.338 ± 0.0043 with DOXORUBICIN (100 nM). The surviving fraction was 0.108 ± 0.006 with DOXORUBICIN (500 nM); 0.0887 ± 0.0033 with DOXORUBICIN (1000 nM); 0.995 ± 0.051 in the test with RESVERATROL (0.5 nM); 0.988 ± 0.011 with RESVERATROL (1 nM); 1.06 ± 0.018 with RESVERATROL (5 nM); 1.07 ± 0.032 with RESVERATROL (10 nM). The surviving fraction with RESVERATROL (50 nM) was 1.01 ± 0.027; with RESVERATROL (100 nM), 1.055 ± 0.0077; in the test with RESVERATROL (500 nM) it was 1.04 ± 0.017; with RESVERATROL (1000 nM), 1.03 ± 0.045.

Consider HCC70 BREAST, for which the surviving fraction in the test with DOXORUBICIN (0.5 nM) amounted to 0.966 ± 0.06; with DOXORUBICIN (1 nM), 0.939 ± 0.021; in the test with DOXORUBICIN (5 nM), 0.986 ± 0.15; in the test with DOXORUBICIN (10 nM), 0.9 ± 0.13; in the test with DOXORUBICIN (50 nM), 0.33 ± 0.013; with DOXORUBICIN (100 nM), 0.489 ± 0.045. The surviving fraction is 0.15 ± 0.022 in the test with DOXORUBICIN (500 nM); 0.0553 ± 0.017 with DOXORUBICIN (1000 nM); 1.09 ± 0.07 in the test with RESVERATROL (0.5 nM); 1.11 ± 0.11 in the test with RESVERATROL (1 nM); 1.14 ± 0.13 with RESVERATROL (5 nM); 1.04 ± 0.049 with RESVERATROL (10 nM). Also, the surviving fraction with RESVERATROL (50 nM) was determined as 1.13 ± 0.066; in the test with RESVERATROL (100 nM), 1.06 ± 0.054; with RESVERATROL (500 nM), 1.11 ± 0.075; in the test with RESVERATROL (1000 nM), 0.999 ± 0.022.

With HS57T BREAST, the surviving fraction in the test with DOXORUBICIN (0.5 nM) came out at 0.98 ± 0.066; with DOXORUBICIN (1 nM) it was 0.906 ± 0.1; with DOXORUBICIN (5 nM), 0.478 ± 0.09; in the test with DOXORUBICIN (10 nM) it was 0.318 ± 0.015; with DOXORUBICIN (50 nM), 0.353 ± 0.045; with DOXORUBICIN (100 nM) it was 0.124 ± 0.015. For the same test system, the surviving fraction came out at 0.0277 ± 0.0011 with DOXORUBICIN (500 nM); 0.0273 ± 0.0011 with DOXORUBICIN (1000 nM); 0.971 ± 0.038 in the test with RESVERATROL (0.5 nM); 1.01 ± 0.073 in the test with RESVERATROL (1 nM); 0.984 ± 0.11 in the test with RESVERATROL (5 nM); 1.07 ± 0.028 in the test with RESVERATROL (10 nM). Further, the surviving fraction in the test with RESVERATROL (50 nM) turned out to be 1.02 ± 0.034; with RESVERATROL (100 nM), 1.04 ± 0.063; in the test with RESVERATROL (500 nM), 1.01 ± 0.047; in the test with RESVERATROL (1000 nM), 0.998 ± 0.11.

Take HMT3552 BREAST: the surviving fraction with DOXORUBICIN (0.5 nM) is 1.09; in the test with DOXORUBICIN (1 nM), 0.911; with DOXORUBICIN (5 nM), 0.949; with DOXORUBICIN (10 nM), 0.817; with DOXORUBICIN (50 nM), 0.154; with DOXORUBICIN (100 nM) it was 0.167. Besides, the surviving fraction in the test with DOXORUBICIN (500 nM) stood at 0.099; with DOXORUBICIN (1000 nM) it was 0.027; in the test with RESVERATROL (0.5 nM), 1.06 ± 0.038; with RESVERATROL (1 nM), 1.12 ± 0.047; with RESVERATROL (5 nM), 1.09 ± 0.027; in the test with RESVERATROL (10 nM) it was 1.03 ± 0.067. Besides, the surviving fraction worked out at 1.07 ± 0.039 with RESVERATROL (50 nM), 1.17 ± 0.056 with RESVERATROL (100 nM), 1.12 ± 0.044 with RESVERATROL (500 nM) and 1.17 ± 0.055 in the test with RESVERATROL (1000 nM).

Turning to HS578T BREAST, the surviving fraction came out at 0.922 ± 0.097 with DOXORUBICIN (0.5 nM); 0.958 ± 0.092 with DOXORUBICIN (1 nM); 0.838 ± 0.1 in the test with DOXORUBICIN (5 nM); 0.693 ± 0.013 in the test with DOXORUBICIN (10 nM); 0.483 ± 0.046 with DOXORUBICIN (50 nM); 0.489 ± 0.066 with DOXORUBICIN (100 nM). Besides, the surviving fraction with DOXORUBICIN (500 nM) was found to be 0.094 ± 0.02; with DOXORUBICIN (1000 nM) it was 0.037 ± 0.0079; with RESVERATROL (0.5 nM) it was 1.15 ± 0.15; in the test with RESVERATROL (1 nM), 1.15 ± 0.036; with RESVERATROL (5 nM), 1.24 ± 0.14; with RESVERATROL (10 nM), 1.14 ± 0.049. Further, the surviving fraction with RESVERATROL (50 nM) turned out to be 1.03 ± 0.074; with RESVERATROL (100 nM) it was 1.27 ± 0.11; with RESVERATROL (500 nM), 1.17 ± 0.22; with RESVERATROL (1000 nM) it was 1.12 ± 0.19.

As for HCC38 BREAST, the surviving fraction with DOXORUBICIN (0.5 nM) came out at 1.23 ± 0.28; with DOXORUBICIN (1 nM), 1.19 ± 0.18; in the test with DOXORUBICIN (5 nM), 1.1 ± 0.23; with DOXORUBICIN (10 nM) it was 0.759 ± 0.14; with DOXORUBICIN (50 nM) it was 0.301 ± 0.034; with DOXORUBICIN (100 nM) it was 0.0897 ± 0.0085. In addition, the surviving fraction was 0.0433 ± 0.0025 with DOXORUBICIN (500 nM); 0.044 ± 0.0079 with DOXORUBICIN (1000 nM); 1.21 ± 0.057 with RESVERATROL (0.5 nM); 1.37 ± 0.15 with RESVERATROL (1 nM); 1.48 ± 0.13 with RESVERATROL (5 nM); 1.56 ± 0.2 with RESVERATROL (10 nM). Further, the surviving fraction in the test with RESVERATROL (50 nM) came out at 1.37 ± 0.063; in the test with RESVERATROL (100 nM), 1.2 ± 0.16; in the test with RESVERATROL (500 nM), 1.24 ± 0.14; with RESVERATROL (1000 nM), 1.18 ± 0.18.

For the test system HMLE3 BREAST, the surviving fraction with DOXORUBICIN (0.5 nM) stood at 0.941 ± 0.088; in the test with DOXORUBICIN (1 nM) it was 1.04 ± 0.046; with DOXORUBICIN (5 nM) it was 0.744 ± 0.081; with DOXORUBICIN (10 nM), 0.405 ± 0.0065; with DOXORUBICIN (50 nM), 0.231 ± 0.022; in the test with DOXORUBICIN (100 nM) it was 0.069 ± 0.018. The surviving fraction in the test with DOXORUBICIN (500 nM) came out at 0.02 ± 0.001; with DOXORUBICIN (1000 nM), 0.0223 ± 0.00058; in the test with RESVERATROL (0.5 nM), 1.01 ± 0.067; in the test with RESVERATROL (1 nM), 1.03 ± 0.089; with RESVERATROL (5 nM), 1.02 ± 0.051; with RESVERATROL (10 nM), 1.03 ± 0.061. Besides, the surviving fraction in the test with RESVERATROL (50 nM) was determined as 1.04 ± 0.096; in the test with RESVERATROL (100 nM), 1.03 ± 0.13; with RESVERATROL (500 nM), 1.06 ± 0.055; with RESVERATROL (1000 nM), 1.12 ± 0.12.

Take CCK81 LARGE INTESTINE: the surviving fraction with RESVERATROL (0.5 nM) was determined as 0.73 ± 0.017; with RESVERATROL (1 nM), 0.79 ± 0.13; with RESVERATROL (5 nM), 0.71 ± 0.065; in the test with RESVERATROL (10 nM), 0.724 ± 0.037; in the test with RESVERATROL (50 nM) it was 0.671 ± 0.058; with RESVERATROL (100 nM), 0.793 ± 0.11. For the same test system, the surviving fraction with RESVERATROL (500 nM) is 0.844 ± 0.085; with RESVERATROL (1000 nM), 0.728 ± 0.039.
